Consider 17 compounds from BindingDB's records for patent US20240335442 (Eurofarma, 2024).

Experiment [1] deals with Sodium channel protein type 9 subunit alpha (Homo sapiens, UniProt Q15858). Kind of experiment: In Vitro Assay (Protocol 2). On the procedure:
(§1) Compounds of Formula (I), were diluted in eight concentrations in the extracellular solution composed of physiological saline, buffered with HEPES (mM): NaCl, 137; KCl, 4; CaCl2, 3.8; MgCl2, 1; HEPES, 10; Glucose, 10; pH 7.4. […], 50; CsF, 90; MgCl2, 5; EGTA, 5; HEPES, 10; pH 7.2. The duration of exposure of each compound with the cells expressing Nav 1.7 or Nav 1.8 was at least five minutes and the assays were performed at room temperature.The measurements of the sodium currents of Nav 1.8 and Nav 1.7 were obtained using the voltage protocols described below: A holding voltage of-100 mV was established followed by an inactivation voltage step at −40 mV for 8 seconds, followed by a −100 mV step for 20 ms, followed by a 20 ms step for 10 mV for Nav 1.8 or 0 mV for Nav 1.7 (TP1A) before returning to the holding voltage of-100 mV. Protocols were repeated at a frequency of 0.05 Hz and current amplitude was quantified over the TP1A phase log.

The target in experiment [2] is Sodium channel protein type 10 subunit alpha (Homo sapiens, UniProt Q9Y5Y9). Kind of experiment: In Vitro Assay (Protocol 2). Here is the method:
as §1

Where only a bound is given, the exact number is not on record here.

Sequence of Sodium channel protein type 9 subunit alpha (Q15858 whole entry): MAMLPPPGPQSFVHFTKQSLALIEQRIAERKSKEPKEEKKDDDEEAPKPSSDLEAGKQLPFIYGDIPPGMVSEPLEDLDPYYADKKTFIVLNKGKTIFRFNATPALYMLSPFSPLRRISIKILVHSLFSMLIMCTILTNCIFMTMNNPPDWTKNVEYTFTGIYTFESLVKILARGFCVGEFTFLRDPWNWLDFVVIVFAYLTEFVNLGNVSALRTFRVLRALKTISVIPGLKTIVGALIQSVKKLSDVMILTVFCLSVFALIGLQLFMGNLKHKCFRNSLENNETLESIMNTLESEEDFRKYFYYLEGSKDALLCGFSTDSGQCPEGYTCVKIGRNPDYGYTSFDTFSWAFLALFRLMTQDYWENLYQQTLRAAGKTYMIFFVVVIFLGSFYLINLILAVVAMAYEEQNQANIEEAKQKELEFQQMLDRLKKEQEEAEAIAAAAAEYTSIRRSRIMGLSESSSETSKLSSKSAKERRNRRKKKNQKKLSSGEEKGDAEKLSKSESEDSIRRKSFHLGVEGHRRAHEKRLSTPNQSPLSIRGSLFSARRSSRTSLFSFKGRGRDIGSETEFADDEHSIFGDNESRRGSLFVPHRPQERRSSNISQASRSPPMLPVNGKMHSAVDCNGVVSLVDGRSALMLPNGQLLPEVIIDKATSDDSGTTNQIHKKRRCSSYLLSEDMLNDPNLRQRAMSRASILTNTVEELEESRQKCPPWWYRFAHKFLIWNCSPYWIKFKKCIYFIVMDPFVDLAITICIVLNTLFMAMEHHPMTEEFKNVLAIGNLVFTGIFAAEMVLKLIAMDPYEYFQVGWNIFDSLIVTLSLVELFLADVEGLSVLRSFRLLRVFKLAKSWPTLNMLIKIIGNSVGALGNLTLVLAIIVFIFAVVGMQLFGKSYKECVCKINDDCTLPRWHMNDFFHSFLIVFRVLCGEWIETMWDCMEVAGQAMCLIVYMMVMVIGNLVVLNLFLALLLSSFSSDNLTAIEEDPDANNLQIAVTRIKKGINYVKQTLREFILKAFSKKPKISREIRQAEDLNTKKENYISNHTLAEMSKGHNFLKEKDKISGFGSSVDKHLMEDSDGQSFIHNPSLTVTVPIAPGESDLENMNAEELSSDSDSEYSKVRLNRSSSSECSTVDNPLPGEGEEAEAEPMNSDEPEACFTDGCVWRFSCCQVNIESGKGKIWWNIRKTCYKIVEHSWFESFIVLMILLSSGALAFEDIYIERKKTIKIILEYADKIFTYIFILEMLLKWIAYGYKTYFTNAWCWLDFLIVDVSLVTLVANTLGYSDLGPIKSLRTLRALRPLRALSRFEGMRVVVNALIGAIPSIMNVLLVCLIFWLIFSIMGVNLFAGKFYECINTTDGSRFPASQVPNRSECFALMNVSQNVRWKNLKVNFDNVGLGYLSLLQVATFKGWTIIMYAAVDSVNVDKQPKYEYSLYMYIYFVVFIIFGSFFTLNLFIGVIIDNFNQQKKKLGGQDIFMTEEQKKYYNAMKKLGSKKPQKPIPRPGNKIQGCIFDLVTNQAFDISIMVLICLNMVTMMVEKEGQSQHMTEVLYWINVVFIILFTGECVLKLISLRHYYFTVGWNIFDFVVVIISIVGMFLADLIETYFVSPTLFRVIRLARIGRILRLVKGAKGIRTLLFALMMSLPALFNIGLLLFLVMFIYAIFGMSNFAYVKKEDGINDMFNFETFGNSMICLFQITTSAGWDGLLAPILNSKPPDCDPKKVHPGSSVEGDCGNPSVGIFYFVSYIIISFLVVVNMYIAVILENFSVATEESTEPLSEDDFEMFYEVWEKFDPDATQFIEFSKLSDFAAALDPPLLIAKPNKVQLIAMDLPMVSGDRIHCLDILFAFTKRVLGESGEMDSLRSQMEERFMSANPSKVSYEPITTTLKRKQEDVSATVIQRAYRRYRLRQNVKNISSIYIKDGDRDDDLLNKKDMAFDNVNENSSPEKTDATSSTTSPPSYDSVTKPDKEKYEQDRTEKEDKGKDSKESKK
Sequence of Sodium channel protein type 10 subunit alpha (Q9Y5Y9 whole entry): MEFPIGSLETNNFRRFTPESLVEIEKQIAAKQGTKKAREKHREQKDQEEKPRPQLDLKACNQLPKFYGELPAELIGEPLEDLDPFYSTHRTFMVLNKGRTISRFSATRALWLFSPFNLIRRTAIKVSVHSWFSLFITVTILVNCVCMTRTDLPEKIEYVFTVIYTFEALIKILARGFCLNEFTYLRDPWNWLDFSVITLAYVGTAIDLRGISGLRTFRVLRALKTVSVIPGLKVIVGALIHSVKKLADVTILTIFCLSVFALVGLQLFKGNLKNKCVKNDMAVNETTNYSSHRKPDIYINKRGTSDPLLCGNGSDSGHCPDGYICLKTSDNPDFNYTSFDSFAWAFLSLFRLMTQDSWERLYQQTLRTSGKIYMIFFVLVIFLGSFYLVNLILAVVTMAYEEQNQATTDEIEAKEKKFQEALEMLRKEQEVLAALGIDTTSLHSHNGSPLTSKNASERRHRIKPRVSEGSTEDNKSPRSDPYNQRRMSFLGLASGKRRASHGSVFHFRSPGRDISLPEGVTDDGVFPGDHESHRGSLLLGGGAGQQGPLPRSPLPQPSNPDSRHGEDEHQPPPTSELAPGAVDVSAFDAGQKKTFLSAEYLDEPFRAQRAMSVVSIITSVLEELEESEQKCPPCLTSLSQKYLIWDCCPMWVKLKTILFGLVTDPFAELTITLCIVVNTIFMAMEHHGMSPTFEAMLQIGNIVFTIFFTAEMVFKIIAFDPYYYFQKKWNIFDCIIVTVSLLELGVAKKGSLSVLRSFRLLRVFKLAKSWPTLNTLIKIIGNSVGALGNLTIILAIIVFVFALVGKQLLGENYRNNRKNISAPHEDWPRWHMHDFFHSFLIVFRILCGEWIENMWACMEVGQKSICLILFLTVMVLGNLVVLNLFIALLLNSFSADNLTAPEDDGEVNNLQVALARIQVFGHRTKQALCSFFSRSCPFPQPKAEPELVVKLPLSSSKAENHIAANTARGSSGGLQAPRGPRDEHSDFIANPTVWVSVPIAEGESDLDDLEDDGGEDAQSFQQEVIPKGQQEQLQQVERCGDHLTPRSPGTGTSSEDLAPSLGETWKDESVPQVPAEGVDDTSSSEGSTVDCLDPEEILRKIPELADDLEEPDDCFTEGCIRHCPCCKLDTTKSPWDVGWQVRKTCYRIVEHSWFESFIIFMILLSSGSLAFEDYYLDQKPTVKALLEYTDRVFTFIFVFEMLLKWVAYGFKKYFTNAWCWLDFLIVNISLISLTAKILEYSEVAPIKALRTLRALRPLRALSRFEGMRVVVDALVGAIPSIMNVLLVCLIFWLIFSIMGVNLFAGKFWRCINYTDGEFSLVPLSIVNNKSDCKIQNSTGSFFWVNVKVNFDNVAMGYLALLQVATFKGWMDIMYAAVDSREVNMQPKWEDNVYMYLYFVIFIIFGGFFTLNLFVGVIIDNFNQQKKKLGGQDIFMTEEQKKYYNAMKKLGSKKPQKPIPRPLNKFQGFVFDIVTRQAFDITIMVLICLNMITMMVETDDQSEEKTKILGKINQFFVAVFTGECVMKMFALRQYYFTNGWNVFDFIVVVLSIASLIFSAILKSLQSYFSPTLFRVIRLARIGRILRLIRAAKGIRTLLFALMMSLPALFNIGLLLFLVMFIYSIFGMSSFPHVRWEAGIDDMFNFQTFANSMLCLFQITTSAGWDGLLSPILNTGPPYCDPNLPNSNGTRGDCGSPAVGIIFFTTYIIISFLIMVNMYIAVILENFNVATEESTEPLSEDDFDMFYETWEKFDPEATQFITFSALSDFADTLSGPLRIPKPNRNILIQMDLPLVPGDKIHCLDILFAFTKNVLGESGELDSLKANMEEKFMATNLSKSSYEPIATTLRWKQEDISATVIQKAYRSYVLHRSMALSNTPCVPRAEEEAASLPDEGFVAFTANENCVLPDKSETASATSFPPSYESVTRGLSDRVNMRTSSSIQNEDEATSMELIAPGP

As to `COc1ccc(-c2cncc(C(=O)N/N=C/C3=C(C)CCCC3)n2)cc1` [US20240335442, Compound 197], the half-inhibitory concentration (IC50) is 778 nM in experiment [1] and 162 nM in experiment [2].
On the same counts, the results for `CCCOc1cc(/C=N/NC(=O)c2cncc(-c3ccc(OC)cc3)n2)cc(OCCC)c1` [US20240335442, Compound 68] are 1830 nM and 289 nM.
On the same counts, the results for `COc1ccc(-c2cncc(C(=O)N/N=C/c3cc(OC)c(OC)c(OC)c3)n2)cc1` [US20240335442, Compound 81] are over 10000 nM and over 1000 nM.
On the same counts, the results for `CCOc1ccc(-c2cncc(C(=O)N/N=C/C3=C(C)CCCC3)n2)cc1` [US20240335442, Compound 198] are 367 nM and 24 nM.
In the case of `COc1ccc(-c2cncc(C(=O)N/N=C/c3cc(OC(C)C)cc(OC(C)C)c3)n2)cc1` [US20240335442, Compound 69], the IC50 in experiment [1] was 1430 nM; in experiment [2] it was 517 nM.
On the same counts, the results for `CCOc1ccc(-c2nc(C(=O)N/N=C/c3cc(OC)cc(OC)c3)cnc2CC)cc1` [US20240335442, Compound 208] are 1890 nM and 431 nM.
On the same counts, the results for `CCOc1ccc(-c2cncc(C(=O)N/N=C/C3=C(C)CCCCC3)n2)cc1` [US20240335442, Compound 201] are 425 nM and 70 nM.
As for `CCOc1ccc(-c2cncc(C(=O)N/N=C/c3cc(OC)cc(C(C)O)c3)n2)cc1` (centres undefined) [US20240335442, Compound 215], the figures for the 50% inhibitory concentration (IC50) in experiment [1] and in experiment [2] were 1910 nM and 116 nM, respectively.
On the same counts, the results for `CC(C)Oc1ccc(-c2cncc(C(=O)N/N=C/C3CCC(F)(F)CC3)n2)cc1` [US20240335442, Compound 176] are 400 nM and 456 nM.
In the case of `CCOc1ccccc1/C=N/NC(=O)c1cncc(-c2ccc(OC)cc2)n1` [US20240335442, Compound 43], the figures for the IC50 in experiment [1] and in experiment [2] were 3920 nM and 188 nM, respectively.
As to `COc1ccc(-c2cncc(C(=O)N/N=C/c3cc(C)cc(C)c3)n2)cc1` [US20240335442, Compound 75], the IC50 in experiment [1] is 464 nM; in experiment [2] it was 51.2 nM.
For `CCOc1ccc(-c2nc(C(=O)N/N=C/c3cc(OC)cc(OC)c3)cnc2OC)cc1` [US20240335442, Compound 211], in that order: over 10000 nM and over 1000 nM.
On the same counts, the results for `COc1ccc(-c2cncc(C(=O)N/N=C/c3cc(OC)cc(OC)c3OC)n2)cc1` [US20240335442, Compound 80] are 1490 nM and 352 nM.
For `CCOc1ccc(-c2nc(C(=O)N/N=C/c3cc(OC)cc(OC)c3)cnc2C)cc1` [US20240335442, Compound 207], in that order: over 10000 nM and 472 nM.
As to `COc1ccc(-c2cncc(C(=O)N/N=C/c3cc(F)cc(F)c3)n2)cc1` [US20240335442, Compound 70], the concentration for half-maximal inhibition (IC50) was determined as 10000 nM in experiment [1] and 973 nM in experiment [2].
For `CCCOc1ccccc1/C=N/NC(=O)c1cncc(-c2ccc(OC)cc2)n1` [US20240335442, Compound 44], in that order: 3620 nM and 163 nM.
On the same counts, the results for `COc1ccc(Oc2nccnc2C(=O)N/N=C/c2cc(OC)cc(OC)c2)cc1` [US20240335442, Compound 129] are over 10000 nM and over 1000 nM.
